Measurements: BigSolDB 2.1

CCS(=O)(=O)O.COC(=O)c1ccc2c(C(=Nc3ccc(N(C)C(=O)CN4CCN(C)CC4)cc3)c3ccccc3)c(O)[nH]c2c1
solubility (mole fraction)
Settings | in DMAc | in DMF | in acetone | in acetonitrile | in dichloromethane | in ethanol | in isopropanol | in methanol | in n-butanol | in n-propanol
278.15 K | 0.000745 | 0.000994 | 3.21e-06 | 9.42e-06 | 0.000125 | 0.00015 | 1.43e-05 | 0.00126 | 1.21e-05 | 4.29e-05
283.15 K | 0.000878 | 0.00129 | 4.13e-06 | 1.42e-05 | 0.000148 | 0.000179 | 1.93e-05 | 0.00149 | 1.44e-05 | 6.92e-05
288.15 K | 0.0011 | 0.00145 | 4.97e-06 | 1.75e-05 | 0.000161 | 0.000214 | 2.57e-05 | 0.00169 | 1.82e-05 | 8.1e-05
293.15 K | 0.00129 | 0.00165 | 5.92e-06 | 2.17e-05 | 0.000175 | 0.000253 | 3.39e-05 | 0.00203 | 2.33e-05 | 0.000103
298.15 K | 0.00156 | 0.00182 | 6.97e-06 | 2.89e-05 | 0.000199 | 0.000298 | 4.44e-05 | 0.00238 | 2.7e-05 | 0.000131
303.15 K | 0.00186 | 0.00206 | 8.32e-06 | 3.83e-05 | 0.00022 | 0.00035 | 5.75e-05 | 0.00281 | 3.54e-05 | 0.000156
308.15 K | 0.00214 | 0.00239 | 9.74e-06 | 4.28e-05 | 0.00025 | 0.0004 | 7.4e-05 | 0.00341 | 4.5e-05 | 0.000207
313.15 K | 0.00258 | 0.00271 | 1.08e-05 | 5.13e-05 | – | 0.000473 | 0.0001 | 0.00413 | 5.17e-05 | 0.000241
318.15 K | 0.00285 | 0.00304 | 1.3e-05 | 6.02e-05 | – | 0.000546 | 0.000118 | 0.00467 | 7.26e-05 | 0.000317
323.15 K | 0.00316 | 0.00336 | 1.62e-05 | 6.85e-05 | – | 0.000627 | 0.00015 | 0.00524 | 8.92e-05 | 0.000384
